Source: paper PMC10812672, “Short Antimicrobial Peptide Derived from the Venom Gland Transcriptome of Pamphobeteus verdolaga Increases Gentamicin Susceptibility of Multidrug-Resistant Klebsiella pneumoniae” (Antibiotics, 2023)
Ends that are not written are not given here.

Experiments:
S. aureus ATCC® 29213 = assay type: cell-based, Staphylococcus aureus
Protocol: (§1) The nine AMPs identified in the initial screening were evaluated at concentrations between 1.56–200 µM, against E. coli ATCC® 25922, S. aureus ATCC® 29213, E. faecalis ATCC® 49532, P. aeruginosa ATCC® 9027, and K. pneumoniae ATCC® BAA-1705 (Supplementary Figures S2–S6). […] Only PvAMP66 and PvAMP172 reached the MBC for S. aureus at 50 µM and 100 µM, respectively (Table 2).
(§2) The evaluation of the antimicrobial activity of the peptides was conducted using the CLSI’s broth microdilution method for bacterial susceptibility testing. For the screening phase, peptides were evaluated at a single 30 μM concentration, in triplicate and in three independent assays, against the E. coli ATCC® 8739, E. coli ATCC® 25922, S. aureus ATCC® 6538, or S. aureus ATCC® 29213 reference USP and CLSI strains. For the determination of MIC, MBC, or IC50, peptides or antibiotics were evaluated in concentrations between 1.56–200 µM. These evaluations were conducted in triplicate and in three independent assays, against the E. coli ATCC® 25922, S. aureus ATCC® 29213, E. faecalis ATCC® 49532, P. aeruginosa ATCC® 9027, and K. pneumoniae ATCC® BAA-1705, or the clinically isolated MDR strain. In detail, 1 mL of a glycerol stock solution of the ATCC® or clinically isolated bacterial strain was added to 9 mL of Mueller-Hinton Broth and incubated for 18 h, 180 rpm and 37 °C (Incubator 1000, Heidolph Instruments, Schwabach, Germany). After the incubation, 1 mL of the previous solution was transferred to a new recipient containing 9 mL of fresh Mueller-Hinton broth and incubated for 4 h, 180 rpm and 37 °C (Incubator 1000, Heidolph Instruments, Schwabach, Germany). During the second incubation, the peptides or the antibiotics were dissolved in PBS pH 7.20 in concentrations between 19.53–2500 µM (MC5 Micro Balance, Sartorius AG, Göttingen, Germany). An amount of 10 µL of either peptide or antibiotic was dispensed in triplicate in 96-well flat bottom culture plates, along with 10 µL of PBS (Negative activity control), BTM-P1 (Positive activity control), or 10 µL of Mueller-Hinton broth (Blank); then, 110 µL of Mueller-Hinton broth was poured in all wells. Following this, the bacteria were suspended in Mueller-Hinton broth up to a concentration of approximately 1.50 × 10^8 CFU/mL, as measured by optical density at 600 nm between 0.06 to 0.11 (0.5 McFarland standard), in a Multiskan SkyHigh spectrophotometer (ThermoFisher Scientific, Waltham, MA, USA). Amounts of 5 µL of the 1.50 × 10^8 CFU/mL suspension were added to each well (except for the blank) for a final well concentration of approximately 6 × 10^6 CFU/mL. The plate was incubated for 24 h at 37 °C (BE 500, Memmert GmbH, Büchenbach, Germany) and optical density was measured at 600 nm in a Multiskan SkyHigh spectrophotometer (ThermoFisher Scientific, Waltham, MI, USA). Following the measurement of optical density, plates were visually inspected to determine the MIC. Subsequently, 100 µL of the concentration associated to the MIC and 100 µL of the next higher concentration were added to Petri dishes containing Mueller-Hinton Agar. The dishes were then incubated for 24 h at 37 °C (BE 500, Memmert GmbH, Büchenbach, Germany). After incubation, the Petri dishes were visually inspected, and the MBC was determined in the absence of growth. IC50 values were interpolated from regressions with correlation values above 0.70. Growth inhibition percentages were calculated as follows: Growth inhibition %=1−AbsPEPTIDE or ANTIBIOTIC−Median AbsBLANK/Median AbsPBS−Median AbsBLANK×100

P. aeruginosa ATCC® 9027 = assay type: cell-based, Pseudomonas aeruginosa
Protocol: as §1, §2

E. coli ATCC® 25922 = assay type: cell-based, Escherichia coli
Protocol: as §1, §2

[1] = 1.56–200 µM, 24 h 37 °C, visual inspection, triplicate, three independent assays
[2] = plating on Mueller-Hinton agar, absence of growth

WKKIKKFF-NH2 [PvAMP66]
MIC (S. aureus ATCC® 29213; [1]): 25 µM
MBC (S. aureus ATCC® 29213; [2]): 50 µM
MIC (P. aeruginosa ATCC® 9027; [1]): 12.5 µM
IC50 (P. aeruginosa ATCC® 9027; growth inhibition OD600, 95% confidence interval in parentheses): 12.7 µM
MBC (P. aeruginosa ATCC® 9027; [2]): 12.5 µM
MIC (E. coli ATCC® 25922; [1]): 50 µM
IC50 (E. coli ATCC® 25922; growth inhibition OD600, interpolated from regression, 95% confidence interval in parentheses, read-out: IC50): 38.3 µM
MBC (E. coli ATCC® 25922; plating on Mueller-Hinton agar, 24 h 37 °C, absence of growth): 50 µM
